For this assay, the target named is 26S proteasome (lid disassembly, GFP-tagged; likely yeast). Put plainly: blockers of ATP hydrolysis-driven proteasome lid dissociation – biochemical, bead-based flow cytometry, GFP-tagged lid, dose response (AID 1062). The note with it: GFP-proteasome beads; for inhibition of disassembly: at 100 µM (top of the series); for EC50: disassembly inhibition. In general terms: Flow cytometry measures light scatter and fluorescence of single cells or particles in a stream.

Activity calls are given as the source filed them.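 The calls were made as follows: active = compounds blocking proteasome disassembly by more than 40% at the highest tested dose; inconclusive = compounds bright enough on their own to skew readings; inactive = the rest.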 Where a SMILES comes first, the peptide text is derived from it. The star is where a group is joined. Cbz = O=C(OCc1ccccc1)*

The EC50 is the concentration needed to bring the measured effect to its halfway point.

In the case of `CCN(CC)c1ccc(-c2c(C#N)c(N)nc(OC)c2C#N)cc1`, the inhibition of disassembly result was “inactive”. Take `O=C(CN1C(=O)C2CCCN2c2ncc(Cl)cc21)NCc1ccc2c(c1)OCO2` (stereo unspecified): the EC50 result was “inactive”. Regarding `COC(=O)c1ccc2c(c1)N(Cc1nc(-c3cccc(Cl)c3)oc1C)C(=O)C1CCCN21` (stereo unspecified), the inhibition of disassembly result is “inactive”. As for `O=C(Nc1ccccc1)C1=C(O)CC(c2ccco2)CC1=Nc1ccccc1` (stereo unspecified), the EC50 is > 100 µM (inactive). Same read-out and setting: for `COC(=O)c1ccc2c(c1)N(Cc1nc(-c3ccc(Cl)cc3)oc1C)C(=O)C1CCCN21` (stereo unspecified) the value was > 100 µM (inactive). As for `CCCOc1ccc(/C=c2\sc3nc(-c4ccco4)nn3c2=O)cc1OCC`, the inhibition of disassembly entry was “inactive”.

`Cc1noc(/C=C/c2ccco2)c1S(=O)(=O)N1CCC(C(=O)N2c3ccccc3CC2C)CC1` (stereo unspecified): the inhibition of disassembly entry was “inactive”. For `Cc1noc(/C=C/c2ccco2)c1S(=O)(=O)N1CCC(C(=O)N(C)Cc2ccccc2)CC1`, the inhibition of disassembly result is “inactive”. Same read-out and setting: then `Fc1ccc2nc(Nc3nc4c(s3)CCCC4)sc2c1`, with “inactive”.

In the case of `O=C1CC(c2ccccc2)Cc2nc(N3CCc4ccccc43)ncc21` (stereo unspecified), the inhibition of disassembly result was “inactive”. Turning to `COC(=O)C1=C(C)N=c2s/c(=C/c3cccs3)c(=O)n2C1c1cccs1` (stereo unspecified), the inhibition of disassembly entry is “inactive”. Still for that read-out and setting: then `CC(C)C[C@@H](C=O)NC(=O)[C@H](CC(C)C)NC(=O)[C@H](CC(C)C)NC(=O)OCc1ccccc1` (Cbz-Leu-Leu-Leu-aldehyde), with “inactive”; and `COC(=O)[C@H]1[C@H]2C[C@@H]3c4[nH]c5cc(OC)ccc5c4CCN3C[C@H]2C[C@@H](OC(=O)c2cc(OC)c(OC)c(OC)c2)[C@@H]1OC`, with “inactive”; and `Cc1ccc2nc(NC(=O)C3CCCN(S(=O)(=O)c4cccc5nsnc45)C3)sc2c1` (stereo unspecified), with “inactive”.

For the compound `Cc1noc(/C=C/c2ccco2)c1S(=O)(=O)N1CCC(C(=O)N2CCc3ccccc3C2)CC1`, the inhibition of disassembly entry was “inactive”. As to `N#Cc1cc2c(nc1SCC(=O)Nc1sc3c(c1C#N)CCC3)CCCCC2`, the inhibition of disassembly result was “inactive”. The same measure, in the same setting: for `Cc1ccc(C)c(N2CCN(S(=O)(=O)c3c(C)noc3/C=C/N(C)C)CC2)c1` the value was “inactive”.

Regarding `CCOc1ccc(/C=c2\sc3nc(-c4ccco4)nn3c2=O)cc1OCC`, the inhibition of disassembly entry is “inactive”. On to `Cc1cccc(NC(=O)c2sc3nc(-c4ccc(F)cc4)cn3c2C)n1`, for which the half-maximal effective concentration (EC50) is 25.9 µM. Take `O=c1cc(Nc2ccc3c(c2)OCCO3)[nH]c(=O)n1C1CCCCC1`: the inhibition of disassembly result is “inactive”. As to `CC(=O)N1C(=O)C(=C2C=C(C)OC(C)=C2)c2ccccc21`, the EC50 is 61.7 µM.

The values above are taken from PubChem BioAssay AID1062 (NMMLSC, 2008).
